Tests used:
[1] = system: human embryonic stem cell line H1; assay: Detachment of H1 cells from polycarbonate Membrane No. 9 after removal of H-1152; assay type: cell-based; conditions: 3 μM for 24 hr, then 24 hours without
Description: Cells of the human embryonic stem cell line H1 were seeded on to a planar substrate comprising polycarbonate (Membrane No. 9) at a density of 100,000 cells/cm^2, in MEF conditioned medium containing 20 ng/ml bFGF and 3 μM of the Rho kinase inhibitor H-1152. The cells were cultured for 24 hr. After this time, the culture medium was replaced with MEF conditioned medium containing 20 ng/ml bFGF, lacking H-1152. After 24 hours, the cells on the membrane were fixed with 4% paraformaldehyde, rinsed with PBS, air dried, stained with crystal violet dye. The number of cells was determined via light microscopy. Wells containing H-1152 were included as a control.

[2] = system: human embryonic stem cell line H1; assay: Attachment of H1 cells to polycarbonate Membrane No. 7 with H-1152 concentration series; assay type: cell-based; conditions: 24 hours
Description: In a separate experiment, the effect of the Rho kinase inhibitor H-1152 on the attachment of cells of the human embryonic stem cell line H1 to Membrane No. 7 was determined. The cells were seeded on a planar substrate comprising polycarbonate membranes (membrane No. 7) at a density of 150,000 cells/cm^2 in MEF-CM containing 20 ng/ml bFGF. The Rho Kinase inhibitor H-1152 was added to the culture medium at concentration of 0, 0.03, 0.1, 0.3, 1, and 3 μM. After 24 hours, the cells on the membrane were fixed with 4% paraformaldehyde, rinsed with PBS, air dried, stained with crystal violet dye. The number of cells was determined via light microscopy. Wells containing vehicle were included as a control.

[3] = system: human embryonic stem cell line H1; assay: Effect of porosity and Rho kinase inhibition on attachment of H1 cells (Membranes No. 10 and 11); assay type: cell-based
Description: Cells of the human embryonic stem cell line H1 at passage 42 were seeded onto the following planar substrates: Membrane No. 10 (pore size 0.4 μm); and Membrane No. 11 (pore size 3 μm). Cells were seeded at a density of 100,000 cells/cm^2, in MEF conditioned medium containing 20 ng/ml bFGF. The effect of Rho kinase inhibition on the attachment of the cells to the planar substrates was also examined. The cell culture medium was supplemented with 0.3 μM H-1152. After 24 hours, the culture medium was replaced with MEF conditioned medium containing 20 ng/ml bFGF, lacking H-1152. After another 24 hours culture, the cells on the membrane were fixed with 4% paraformaldehyde, rinsed with PBS, air dried, stained with crystal violet dye. Wells containing 1 μM H-1152 were included as a control. The number of cells was determined via light microscopy. Wells containing vehicle were included as a control.

[4] = system: human embryonic stem cell line H1; assay: Attachment of human embryonic stem cell line H1 to planar substrates of Table 1, with or without H-1152; assay type: cell-based
Description: Prior to testing, cells of the human embryonic stem cell line H1 cells were expanded on tissue culture plates coated with a 1:30 dilution of growth factor-reduced MATRIGEL®. Cells were seeded onto 100 mm culture dishes in 10 ml MEF conditioned media supplemented with 20 ng/ml bFGF (MEF-CM/bFGF). The cells were cultured at 37° C. in a humidified with a 5% CO2 atmosphere. The media was changed everyday with fresh MEF-CM/bFGF. Once the cells reached approximately 80% confluence, the cells were passaged by treatment with 1 mg/ml LIBERASE for 5 minutes at 37° C. The digestion was stopped by removing enzyme from the dish and rinsing the cells with MEF-CM/bFGF. The cells were collected by manual scraping in 10 ml MEF-CM/bFGF and transferred to a 50-ml conical tube. The cells were centrifuged at 200×g (1000 rpm) on a tabletop centrifuge to form a pellet. […]
Cells of the human embryonic stem cell line H1 were seeded onto the various planar substrates set forth in Table 1, at a density of 100,000 cells/cm^2. […] The effect of the Rho kinase inhibitor H-1152 on the attachment of the cells to the planar substrates was determined 3 μM H-1152 was added to the medium used to seed the cells. […] The cells were then stained with 1% hematoxylin, and the number of cells was determined via light microscopy. […]

[5] = system: human embryonic stem cells; conditions: cited from earlier work
[6] = system: human embryonic stem cell line H9; assay: Attachment of H9 cells to polycarbonate Membrane No. 7 with Y26732; assay type: cell-based; conditions: 24 hours
Description: Cells of the human embryonic stem cell line H9 were seeded onto a planar substrate comprising polycarbonate (Membrane No. 7) at a density of 150,000 cells/cm^2 in MEF conditioned medium. The effect of Rho kinase inhibitor treatment on attachment was examined: The Rho Kinase inhibitor Y26732 was added to the culture medium at concentration of 0, 10, or 20 μM. After 24 hours, the cells on the membrane were fixed with 4% paraformaldehyde at room temperature, rinsed with PBS, air dried, stained with crystal violet dye. The number of cells was determined via light microscopy. Wells containing vehicle were included as a control.

[7] = system: dissociated human embryonic stem cells; conditions: serum-free suspension culture; cited from earlier work
[8] = system: human embryonic stem cell line H9; assay: Attachment of H9 cells to mixed cellulose ester membrane No. 1 with Y26732; assay type: cell-based; conditions: for Effect of Y26732 on attachment of H9 cells: 24 hours
Description: Cells of the human embryonic stem cell line H9 were cultured on MATRIGEL® coated dishes prior to experimental manipulation. Cells were seeded a mixed cellulose ester membrane (membrane No. 1) at a density of 150,000 cells/cm^2 in MEF conditioned medium. The planar substrate lacked an adlayer and a fibroblast feeder cell layer. The effect of the Rho Kinase inhibitor treatment on the attachment to the planar substrate was examined Cells were treated with 0, 10, or 20 μM Y26732. After 24 hours, the cells were fixed with 4% paraformaldehyde, rinsed with PBS, air dried, stained with crystal violet dye. The number of cells was determined via light microscopy. Wells containing vehicle were included as a control.

Row | Structure (SMILES) | Effect of removal of H-1152 from the culture medium [1] | Attachment of H1 cells with H-1152 ([2]; 0.03 μM) | Attachment of H1 cells with H-1152 ([2]; 0.1 μM) | Attachment of H1 cells with H-1152 ([2]; 0.3 μM) | Attachment of H1 cells with H-1152 ([2]; 1 μM) | Attachment of H1 cells with H-1152 ([2]; 3 μM) | Need for H-1152 to maintain attachment of H1 cells ([3]; 1 μM, Membranes No. 10 and 11) | Effect of removal of H-1152 from the culture medium ([3]; Membrane No. 10 and Membrane No. 11) | Effect of H-1152 on attachment of H1 cells ([4]; 3 μM H-1152, membranes No. 2, 4 and 5) | Effect of removal of H-1152 from the culture medium on attached H1 cells ([4]; membranes No. 7 and No. 12) | attachment of human embryonic stem cells on surface modified plates [5] | Effect of Y26732 on attachment of H9 cells ([6]; 10 μM) | Effect of Y26732 on attachment of H9 cells ([6]; 20 μM) | apoptosis of dissociated human ES cells [7] | Effect of Y26732 on attachment of H9 cells ([8]; 10 μM) | Effect of Y26732 on attachment of H9 cells ([8]; 20 μM) | Effect of removal of Y26732 from the culture medium ([8]; removal for 24 hr)
1 | Cc1cncc2cccc(S(=O)(=O)N3CCCNC[C@@H]3C)c12 [Membrane H-1152] | resulted in the detachment of cells | do not attach | do not attach | attachment was observed | attachment was observed | attachment was observed | required to maintain the attachment | resulted in detachment of cells | enhanced | led to detachment of H1 cells | – | – | – | – | – | – | –
2 | C[C@@H](N)[C@H]1CC[C@H](C(=O)Nc2ccncc2)CC1 [Membrane Y26732] | – | – | – | – | – | – | – | – | – | – | enhance the attachment | resulted in the attachment | resulted in the attachment | protected from apoptosis | increased the attachment | increased the attachment | did not result in the detachment
